Reference: patent US20110313034A1, “NEUROACTIVE PLANT EXTRACT FROM HYPERICUM POLYANTHEMUM” (UNIVERSIDADE FEDERAL DO RIO GRANDE DO SUL, priority 2009, published 2011)

What was measured:
[1] = test system: corticosterone; assay: serum and cortical corticosterone in mice subjected to forced swimming (radioimmunoassay); type: in vivo; conditions: three days of treatment, POL 360 mg/kg p.o., imipramine 20 mg/kg, bupropion 30 mg/kg; for serum levels of corticosterone: forced swimming
Method: Data are presented as mean±SEM. *p<0.01 compared to respective group without swimming; #p<0.01 compared to SAL with swimming. Legend: (A) X axis—corticosterone levels (μg/100 mL plasma); Blank values: no swimming; values hatch: with swim, (B) X axis—cortical Corticosterone (pg/100 mg tissue).
We evaluated the action of POL (360 mg/kg, p.o.) on serum and cortical levels of corticosterone in mice subjected or not to stress caused by forced swimming. The concentration of corticosterone present in the samples was measured by radioimmunoassay.

[2] = target: T1, monoamine oxidase A (Rattus norvegicus, UniProt P21396); conditions: mitochondria from rat brain; cited from earlier work
T1 construct: in preparations of mitochondria from rat brain; from tissue; host or cells: rat brain mitochondria
T1 sequence (P21396 1-526): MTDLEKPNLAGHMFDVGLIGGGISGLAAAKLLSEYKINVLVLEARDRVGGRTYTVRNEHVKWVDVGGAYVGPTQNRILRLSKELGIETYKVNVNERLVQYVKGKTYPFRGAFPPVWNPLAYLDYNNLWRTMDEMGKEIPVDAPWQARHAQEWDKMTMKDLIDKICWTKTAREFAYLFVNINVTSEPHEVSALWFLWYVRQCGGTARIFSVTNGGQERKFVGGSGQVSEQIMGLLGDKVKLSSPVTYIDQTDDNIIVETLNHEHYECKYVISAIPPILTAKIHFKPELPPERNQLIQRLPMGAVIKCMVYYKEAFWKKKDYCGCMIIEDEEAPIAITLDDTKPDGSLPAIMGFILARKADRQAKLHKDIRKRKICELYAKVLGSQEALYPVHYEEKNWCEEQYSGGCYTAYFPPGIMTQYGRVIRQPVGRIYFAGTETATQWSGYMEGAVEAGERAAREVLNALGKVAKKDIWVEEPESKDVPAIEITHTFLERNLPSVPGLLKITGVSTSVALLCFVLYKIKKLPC

[3] = target: T2, synaptosomal reuptake of noradrenaline ([3H]-NA) (Rattus norvegicus, UniProt Q9WTR4); conditions: in vitro; cited from earlier work
[4] = target: T3, synaptosomal reuptake of serotonin ([3H]-5HT) (Rattus norvegicus, UniProt P31652); conditions: in vitro; cited from earlier work
[5] = test system: synatosomal reuptake of GABA; conditions: in vitro; cited from earlier work
[6] = target: T4, synaptosomal reuptake of dopamine ([3H]-DA) (Rattus norvegicus, UniProt P23977); conditions: in vitro; cited from earlier work
[7] = test system: synatosomal reuptake of glutamate; conditions: in vitro; cited from earlier work
[8] = target: T5, sites of uptake of 5-HT (Rattus norvegicus, UniProt P31652); assay: binding of [3H]-citalopram to sites of uptake of 5-HT, frontal cortex membranes; conditions: 3×10^−7-3×10^−11 g/mL
T5 construct: in synaptosomes prepared from striatum, hypothalamus and frontal cortex, respectively; from tissue; host or cells: frontal cortex (synaptosomes; membranes)

[9] = target: T2, synaptosomal reuptake of noradrenaline ([3H]-NA); assay: synaptosomal reuptake of noradrenaline ([3H]-NA), hypothalamus synaptosomes; type: biochemical; set-up: in synaptosomes prepared from striatum, hypothalamus and frontal cortex, respectively; from tissue; host or cells: hypothalamus (synaptosomes; membranes); conditions: synaptosomes from hypothalamus; HP4 3×10^−4-3×10^−11 g/mL; read-out: IC50, synaptosomal uptake of NA
Description: (§1) The effect of HP4 (3×10^−4-3×10^−11 g/mL) on synaptosomal reuptake of dopamine ([^3H]-DA), noradrenaline ([^3H]-NA) and serotonin ([^3H]-5HT) in synaptosomes prepared from striatum, hypothalamus and frontal cortex, respectively. […] This profile differs from other antidepressants, which inhibit the reuptake of monoamines through competition for binding site on the transporter.

[10] = target: T3, synaptosomal reuptake of serotonin ([3H]-5HT); assay: synaptosomal reuptake of serotonin ([3H]-5HT), frontal cortex synaptosomes; type: biochemical; set-up: in synaptosomes prepared from striatum, hypothalamus and frontal cortex, respectively; from tissue; host or cells: frontal cortex (synaptosomes; membranes); conditions: synaptosomes from frontal cortex; HP4 3×10^−4-3×10^−11 g/mL; read-out: IC50, synaptosomal uptake of 5-HT
Description: as §1

[11] = target: T4, synaptosomal reuptake of dopamine ([3H]-DA); assay: synaptosomal reuptake of dopamine ([3H]-DA), striatum synaptosomes; type: biochemical; set-up: in synaptosomes prepared from striatum, hypothalamus and frontal cortex, respectively; from tissue; host or cells: striatum (synaptosomes; membranes)
Description: as §1

[12] = test system: immobility time of mice; assay: Porsolt's forced swimming test (FST) in mice; type: in vivo, CF1 mice; conditions: 90 mg/kg, p.o.
Method: The species H. caprifoliatum, H. carinatum, H. connatum, H. myrianthum, H. piriai, H. polyanthemum and H. cordatum, and three isolated benzopyrans of H. polyanthemum (HP1, HP2, and HP3) were tested for inhibitory activity of monoamine oxidase A and B in preparations of mitochondria from rat brain.
Results are expressed as mean±SEM. * Significant difference compared to the SAL group (water+polysorbate 80, 5%, 1 ml/kg, p.o.) # significant difference compared to POL270 (ANOVA F(7,79)=5.9, p<0.001).
Results are expressed as mean±SEM. *Significant difference compared to the SAL group (water+polysorbate 80, 5%, 1 ml/kg, p.o.) (ANOVA, F(2,29)=15.5, p<0.001).
POL was active in rats (270 mg/kg/day, p.o.) and mice (180, 270 and 360 mg/kg, p.o.). The action of POL in the FST was blocked by administration of SCH 23390 (dopamine D1 antagonist) […], i.p., and sulpiride (D2 dopamine antagonist) 50 mg/kg, ip, (FIG. 1). HP4 was active at a dose of 90 mg/kg, p.o. in mice (FIG. 2).

[13] = test system: G proteins; assay: direct incubation of membranes with HP4, [35S]GTPγS binding; type: biochemical, rats
Method: To evaluate the effect of POL on DA, NA, 5-HT and opioids receptors, we used the technique of binding of [^35S] GTPγS stimulated by DA, NA, 5-HT and DAMGO in membranes prepared from striatum, hypothalamus, frontal cortex and thalamus of rats, respectively. […] GTPγS stimulated by DA, NA and 5-HT, while 5 days of treatment with 90 mg/kg, decreases this binding. […] This time profile of action coincides with the modern theories that the antidepressant effect is related to neuroadaptation processes.
GTPγS to its site. […] These changes can occur through other regulatory mechanisms or are related to HP4 metabolites produced after administration in vivo of POL. […] GTPγS stimulated by agonists after different treatment regimens with saline and POL.

[14] = target: T6, sites of uptake of DA (Rattus norvegicus, UniProt P23977); assay: binding of [3H]-mazindol to sites of uptake of DA, striatum membranes; conditions: 3×10^−7-3×10^−11 g/mL
T6 construct: in synaptosomes prepared from striatum, hypothalamus and frontal cortex, respectively; from tissue; host or cells: striatum (synaptosomes; membranes)

[15] = target: T7, sites of uptake of NA (Rattus norvegicus, UniProt Q9WTR4); assay: binding of [3H]-nisoxetina to sites of uptake of NA, hypothalamus membranes; conditions: 3×10^−7-3×10^−11 g/mL
T7 construct: in synaptosomes prepared from striatum, hypothalamus and frontal cortex, respectively; from tissue; host or cells: hypothalamus (synaptosomes; membranes)
T7 sequence (Q9WTR4 1-597): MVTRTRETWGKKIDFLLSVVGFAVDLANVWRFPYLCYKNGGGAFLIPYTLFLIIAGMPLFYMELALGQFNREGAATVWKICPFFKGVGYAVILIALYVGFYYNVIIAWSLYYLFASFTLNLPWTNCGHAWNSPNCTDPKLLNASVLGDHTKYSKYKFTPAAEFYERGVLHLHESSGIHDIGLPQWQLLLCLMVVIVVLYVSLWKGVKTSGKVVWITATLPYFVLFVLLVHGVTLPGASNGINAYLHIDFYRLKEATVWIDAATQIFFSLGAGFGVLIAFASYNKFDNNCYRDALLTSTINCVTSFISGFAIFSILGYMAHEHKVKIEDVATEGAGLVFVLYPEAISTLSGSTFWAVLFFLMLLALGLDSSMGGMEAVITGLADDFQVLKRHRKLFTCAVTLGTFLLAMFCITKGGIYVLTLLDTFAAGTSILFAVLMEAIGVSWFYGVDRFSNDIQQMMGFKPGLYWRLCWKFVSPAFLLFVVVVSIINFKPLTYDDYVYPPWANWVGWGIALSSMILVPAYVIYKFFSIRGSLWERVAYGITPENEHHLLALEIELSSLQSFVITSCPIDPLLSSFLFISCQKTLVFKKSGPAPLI

T4 sequence (P23977 whole entry): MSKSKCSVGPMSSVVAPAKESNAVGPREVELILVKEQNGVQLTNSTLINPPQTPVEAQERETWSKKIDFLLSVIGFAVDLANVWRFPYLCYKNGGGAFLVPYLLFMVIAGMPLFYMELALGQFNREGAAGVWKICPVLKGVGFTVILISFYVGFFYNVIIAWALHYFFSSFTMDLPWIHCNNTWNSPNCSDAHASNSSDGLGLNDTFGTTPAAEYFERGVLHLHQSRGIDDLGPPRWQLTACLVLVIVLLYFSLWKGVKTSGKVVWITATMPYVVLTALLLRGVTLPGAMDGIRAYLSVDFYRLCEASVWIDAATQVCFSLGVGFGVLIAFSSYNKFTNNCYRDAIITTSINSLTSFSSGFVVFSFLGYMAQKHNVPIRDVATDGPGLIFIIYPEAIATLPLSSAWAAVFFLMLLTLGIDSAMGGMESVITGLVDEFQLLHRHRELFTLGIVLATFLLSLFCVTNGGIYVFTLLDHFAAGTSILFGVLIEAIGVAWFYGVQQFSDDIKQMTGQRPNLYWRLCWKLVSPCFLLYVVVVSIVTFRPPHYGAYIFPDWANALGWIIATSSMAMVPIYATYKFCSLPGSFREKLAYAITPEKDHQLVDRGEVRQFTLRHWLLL
T3 sequence (P31652 whole entry): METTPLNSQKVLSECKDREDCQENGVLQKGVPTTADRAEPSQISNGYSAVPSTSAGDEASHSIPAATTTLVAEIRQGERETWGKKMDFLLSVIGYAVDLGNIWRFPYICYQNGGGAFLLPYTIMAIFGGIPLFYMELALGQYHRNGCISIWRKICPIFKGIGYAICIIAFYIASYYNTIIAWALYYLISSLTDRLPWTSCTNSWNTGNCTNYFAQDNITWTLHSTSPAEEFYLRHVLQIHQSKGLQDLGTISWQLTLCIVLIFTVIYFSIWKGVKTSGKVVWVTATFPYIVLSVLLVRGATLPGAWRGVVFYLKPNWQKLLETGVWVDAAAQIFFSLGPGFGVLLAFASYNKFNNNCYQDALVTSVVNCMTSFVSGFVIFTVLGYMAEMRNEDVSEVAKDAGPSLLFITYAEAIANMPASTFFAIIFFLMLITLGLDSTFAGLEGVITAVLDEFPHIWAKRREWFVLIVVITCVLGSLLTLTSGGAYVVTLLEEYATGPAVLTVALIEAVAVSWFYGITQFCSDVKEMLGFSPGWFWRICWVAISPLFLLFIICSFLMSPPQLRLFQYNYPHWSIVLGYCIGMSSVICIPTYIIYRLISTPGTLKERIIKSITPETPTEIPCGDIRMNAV
T2 sequence (Q9WTR4 1-597): as the sequence (Q9WTR4 1-597) above
T5 sequence (P31652 whole entry): as the sequence (P31652 whole entry) above
T6 sequence (P23977 whole entry): as the sequence (P23977 whole entry) above

Molecule: CC(NC(C)(C)C)C(=O)c1cccc(Cl)c1 (stereo not shown) [bupropion]
- level of cortical corticosterone raised by forced swimming [1]: alters both serum and cortical levels
- serum levels of corticosterone [1]: alters both serum and cortical levels

Molecule: COc1cc2c(c(O)c1C(=O)C(C)C)C=CC(C)(C)O2 [HP3, 5-hydroxy-6-isobutyryl-7-methoxy-2,2-dimethyl-benzopyran]
- IC50 [2]: 22.2 µM

Molecule: CN(C)CCCN1c2ccccc2CCc2ccccc21 [imipramine]
- level of cortical corticosterone raised by forced swimming [1]: alters both serum and cortical levels
- serum levels of corticosterone [1]: alters both serum and cortical levels

Molecule: hyperforin
- inhibition of synaptosomal reuptake of norepinephrine [3]: inhibit
- inhibition of synaptosomal reuptake of serotonin [4]: inhibit
- inhibition of synaptosomal reuptake of GABA [5]: inhibits
- inhibition of synaptosomal reuptake of dopamine [6]: inhibit
- inhibition of synaptosomal reuptake of glutamate [7]: inhibits

Molecule: CC(C)C(=O)C1=C(O)C(C)(C)C(O)=C(Cc2c(O)c3c(c(C(=O)C(C)C)c2O)OC(C)(C)C=C3)C1=O [HP4, uliginosin B]
- effect on binding of [3H]-citalopram to sites of uptake of 5-HT [8]: did not affect the binding
- IC50 [9]: 280 ± 48 nM
- IC50 [10]: 252 ± 13 nM
- IC50 for dopamine relative to IC50 for NA and 5-HT (reuptake selectivity) ([11]; in vitro synaptosomal reuptake): almost three times smaller
- IC50 ([11]; synaptosomes from striatum, HP4 3×10^−4-3×10^−11 g/mL, read-out: IC50, synaptosomal uptake of DA): 90 ± 38 nM
- activity in forced swimming test [12]: active
- effect on binding of [35S]GTPγS to its site [13]: did not alter the binding
- effect on binding of [3H]-mazindol to sites of uptake of DA [14]: did not affect the binding
- effect on binding of [3H]-nisoxetina to sites of uptake of NA [15]: did not affect the binding
